Laboratory results from patent US5284853A, “Angiotensin II receptor blocking 2,3,6 substituted quinazolinones” (American Cyanamid Company, priority 1993, dated 1994).
“And” between values parts separate entries of the source, which are not always exact repeats. Equal entries are not always repeated.

Key:
Angiotensin II Receptor = biological target: T1, Angiotensin II Receptor (Bos taurus, UniProt P25104); assay: Receptor binding assay: competition of [^125 I](Sar^1,Ile^8)AngII binding to beef adrenal cortex microsomal membranes; details: 60 min, room temperature, pH 7.4
T1 construct: The brownish tissue forming the adrenal cortex is scraped off and finely minced with scissors before homogenization; tissue local slaughter house (Maxwell-Cohen); host or cells: beef adrenal cortex, microsomal membranes (100,000×g pellet)
T1 sequence (P25104 1-359): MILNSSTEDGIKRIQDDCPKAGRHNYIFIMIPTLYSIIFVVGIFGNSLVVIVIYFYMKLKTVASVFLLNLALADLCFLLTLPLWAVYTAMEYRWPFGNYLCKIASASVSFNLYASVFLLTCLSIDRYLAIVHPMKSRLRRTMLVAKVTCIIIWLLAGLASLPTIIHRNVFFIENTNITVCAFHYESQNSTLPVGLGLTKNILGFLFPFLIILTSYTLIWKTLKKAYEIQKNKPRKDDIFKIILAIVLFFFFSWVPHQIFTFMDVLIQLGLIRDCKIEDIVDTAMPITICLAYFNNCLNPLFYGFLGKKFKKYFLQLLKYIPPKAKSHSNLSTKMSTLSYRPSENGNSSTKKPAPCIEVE
Description: Beef adrenals are obtained from a local slaughter house (Maxwell-Cohen). [^125 […]. 2200 Ci/mmole, is purchased from Dupont (KEN@, Boston, Mass.). All unlabeled AngII analogs, Dimethylsulfoxide (DMSO), nucleotides, bovine serum albumin (BBA) are purchased from Sigma Chemical Co., St. Louis, MO U.S.A. Approximately sixteen (16) to twenty (20) beef adrenal glands are processed as follows: fresh adrenal glands received on crushed ice are cleaned of fatty tissues and the tough membranes encapsulating the glands are removed and discarded. The brownish tissue forming the adrenal cortex is scraped off and finely minced with scissors before homogenization care is taken to avoid contamination with medullary tissue during dissection. […] Unless otherwise indicated, all subsequent operations are done at […]. […] The homogenate is centrifuged first at low speed (3,000×g) for 10 min. […] This P2 pellet is discarded and the liquid phase is carefully decanted off in clean centrifuge tubes and recentrifuged at high speed (100,000×g) for 60 min. The translucent final pellet is harvested and combined in a small volume (20-50.0 ml) of […] Tris.HCl buffer, pH 7.2. A 100 ul aliquot is withdrawn and the protein content of the preparation is determined by the Lowry's method (Lowry, O. H., Rosebrough, N. P., Parr, A. L. and Randall, R. J., Protein measurement with Folin phenol reagent. J. Biol. Chem., […], 265-275, 1951). The pelleted membrane is reconstituted in 50.0 mM Tris.HCl buffer containing 0.1 mM of phenylmethylsulfonyl fluoride (PMSF) to give approximately a protein concentration of 2.5 mg per ml of tissue suspension. […] In competition studies, experimental compounds are diluted in dimethylsulfoxide (DMSO) and added in 20 ul to wells before the introduction of tissue membranes. This concentration of DMSO is found to have no negative effects on the binding of [^125 I] ([…] to the membranes. Assays are performed in triplicate. The wells are left undisturbed for 60 min. at room temperature. Following incubation, all wells are harvested at once with a Brandel® Harvester especially designed for a 96 well plate (Brandel® Biomedical Research & Development Labs. Inc., Gaithersburg, MD, U.S.A.). The filter discs are washed with 10×1.0 ml of cold 0.9% NaCl to remove unbound ligand. Presoaking the filter sheet in 0.1% polyethyleneimine in normal saline (PEI/Saline) greatly reduces the radioactivity retained by the filter blanks. This method is routinely used. The filters are removed from the filter grid and counted in a Parkard® Cobra Gamma Counter for 1 min. (Packard Instrument Co., Downers Grove, Ill, U.S.A.). The binding data are analyzed by the non-linear interactive "LUNDON-11" program (LUNDON SOFTWARE Inc., Cleveland, OH U.S.A.).

[1] = tested on: Angiotensin II (AII) vasopressor response; assay: AII Challenge: antagonism of the angiotensin II vasopressor response in conscious SHR; type: in vivo, Spontaneously hypertensive rats (Male okamoto-Aoki SHR); details: 10 mg/kg I.V.; for Average Change / Inhibition: n = 2; for Change / Control Before AII / Response After AII: per rat
Description: […] Conscious Male okamoto-Aoki SHR, 16-20 weeks old, weighing approximately 330 g are purchased from Charles River Labs (Wilmington, MA). Conscious rats are restrained in a supine position with elastic tape. The area at the base of the tail is locally anesthetized by subcutaneous infiltration with 2% procaine. […] The cannula is secured, heparinized (1,000 I.U./ml), sealed and the wound is closed. The animals are placed in plastic restraining cages in an upright position. The cannula is attached to a Statham P23Db pressure transducer, and pulsatile blood pressure is recorded to 10-15 minutes with a Gould Brush recorder. (Chan et al., (Drug Development Res., 18:75-94, 1989). […] Co., St. […] […] […] […] […] A compound is considered active if at 30 mg/kg i.v. it antagonized at least 50% of the response.

[2] = AII 0.05 mcg/kg IV, 30 min post dose
[3] = AII 0.05 mcg/kg IV, 60 min post dose
[4] = AII 0.05 mcg/kg IV, 90 min post dose
[5] = AII 0.05 mcg/kg IV, 120 min post dose
[6] = AII 0.05 mcg/kg IV, 180 min post dose
[7] = AII 0.1 mcg/kg IV, 30 min post dose
[8] = AII 0.1 mcg/kg IV, 60 min post dose
[9] = AII 0.1 mcg/kg IV, 90 min post dose
[10] = AII 0.1 mcg/kg IV, 120 min post dose
[11] = AII 0.1 mcg/kg IV, 180 min post dose

## CCCCc1nc2ccc(C3CC(C(=O)OCC)=NO3)cc2c(=O)n1Cc1ccc(-c2ccccc2-c2nnn[nH]2)cc1 (stereo not shown) [Example 26, Ethyl 5-[2-butyl-3,4-dihydro-4-oxo-3-[[2'-(lH-tetrazol-5-yl)[1,1'-biphenyl]-4-yl]-methyl]-6-cruinazo-linyl]-4,5-dihydro-3-isoxazolecarboxylate]
Angiotensin II Receptor
  IC50: 30 nM
[1]; [2]
  Average Change: 15 mmhg
  Inhibition: 73%
  Change: 15 mmhg
  Control Before AII: 180 mmhg and 175 mmhg
  Response After AII: 195 mmhg and 190 mmhg
[1]; [3]
  Average Change: 10.5 mmhg
  Inhibition: 81%
  Change: 20 mmhg and 1 mmhg
  Control Before AII: 175 mmhg and 195 mmhg
  Response After AII: 195 mmhg and 196 mmhg
[1]; [4]
  Average Change: 17 mmhg
  Inhibition: 70%
  Change: 15 mmhg and 19 mmhg
  Control Before AII: 175 mmhg and 165 mmhg
  Response After AII: 190 mmhg and 184 mmhg
[1]; [5]
  Average Change: 20 mmhg
  Inhibition: 64%
  Change: 20 mmhg
  Control Before AII: 165 mmhg
  Response After AII: 185 mmhg
[1]; [6]
  Average Change: 17.5 mmhg
  Inhibition: 69%
  Change: 15 mmhg and 20 mmhg
  Control Before AII: 170 mmhg and 165 mmhg
  Response After AII: 185 mmhg
[1]; [7]
  Average Change: 11 mmhg
  Inhibition: 79%
  Change: 7 mmhg and 15 mmhg
  Control Before AII: 185 mmhg and 170 mmhg
  Response After AII: 192 mmhg and 185 mmhg
[1]; [8]
  Average Change: 12.5 mmhg
  Inhibition: 77%
  Change: 15 mmhg and 10 mmhg
  Control Before AII: 180 mmhg and 175 mmhg
  Response After AII: 195 mmhg and 185 mmhg
[1]; [9]
  Average Change: 15 mmhg
  Inhibition: 72%
  Change: 15 mmhg
  Control Before AII: 185 mmhg and 175 mmhg
  Response After AII: 200 mmhg and 190 mmhg
[1]; [10]
  Average Change: 18.5 mmhg
  Inhibition: 65%
  Change: 17 mmhg and 20 mmhg
  Control Before AII: 175 mmhg and 165 mmhg
  Response After AII: 192 mmhg and 185 mmhg
[1]; [11]
  Average Change: 38.5 mmhg
  Inhibition: 28%
  Change: 37 mmhg and 40 mmhg
  Control Before AII: 170 mmhg and 165 mmhg
  Response After AII: 207 mmhg and 205 mmhg

## CCCCc1nc2ccc(C3CC(c4ccc(C)cc4)=NO3)cc2c(=O)n1Cc1ccc(-c2ccccc2-c2nnn[nH]2)cc1 (stereo not shown) [Example 23, 2-Butyl-6-[4,5-dihydro-3-(4-methylphenyl)-5-isoxazolyl]-3-[[2'-(lH-tetrazol-5-yl)[1,1'-biphenyl]-4-yl]methyl]-4(3H)-quinazolinone]
Angiotensin II Receptor
  IC50: 70 nM
